For 25 compounds, IC50 results are on record in patent US10174016B2 (BAYER AKTIENGESELLSCHAFT, priority 2014, dated 2019).

For one assay, the target named is human P2X2/3 receptor (Homo sapiens (Human), UniProt P56373+Q9UBL9). The experiment in a line: Intracellular calcium measurement (FLIPR, Fluo-4) of antagonist activity at human P2X2/3 receptors. In kind it is cell-based. The note with it: human P2X2/3, FLIPR calcium assay, agonist α,β-Me-ATP; read-out: hP2X2/3 IC50. In short, it runs like this:
(§1)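 Cells expressing human P2X3 or P2X2/3, loaded with Fluo-4, preincubated 30 min at 37° C. with compound (1% DMSO final), then challenged with α,β-Me-ATP at its EC80. Peak FLIPR fluorescence over 90 sec gave % response; IC50, maximal inhibition and Hill slope from triplicates.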
In general terms: Calcium assays in cells follow changes in intracellular calcium, usually with a dye or a luminescent sensor.

For a further assay, the target named is human P2X3 receptor (Homo sapiens (Human), UniProt P56373). The experiment in a line: Intracellular calcium measurement (FLIPR, Fluo-4) of antagonist activity at human P2X3 receptors. Type of assay: cell-based. The note with it: read-out: hP2X3 IC50. An outline of the steps: as §1
Where [1] appears, read: human P2X3, FLIPR calcium assay, agonist α,β-Me-ATP.

Read-outs that look alike come from different tables or passages of the source.

Sequence of human P2X2/3 receptor (P56373 whole entry): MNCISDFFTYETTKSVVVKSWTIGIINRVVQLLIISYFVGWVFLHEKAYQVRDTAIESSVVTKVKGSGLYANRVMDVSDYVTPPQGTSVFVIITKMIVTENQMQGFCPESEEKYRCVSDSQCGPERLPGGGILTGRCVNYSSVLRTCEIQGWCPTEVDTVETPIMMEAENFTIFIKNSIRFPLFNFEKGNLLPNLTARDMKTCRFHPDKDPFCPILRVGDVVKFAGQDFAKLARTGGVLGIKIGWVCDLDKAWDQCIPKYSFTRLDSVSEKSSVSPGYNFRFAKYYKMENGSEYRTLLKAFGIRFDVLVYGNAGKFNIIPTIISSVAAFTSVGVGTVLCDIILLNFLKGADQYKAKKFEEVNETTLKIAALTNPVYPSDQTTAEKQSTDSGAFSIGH
Sequence of human P2X2/3 receptor (Q9UBL9 whole entry): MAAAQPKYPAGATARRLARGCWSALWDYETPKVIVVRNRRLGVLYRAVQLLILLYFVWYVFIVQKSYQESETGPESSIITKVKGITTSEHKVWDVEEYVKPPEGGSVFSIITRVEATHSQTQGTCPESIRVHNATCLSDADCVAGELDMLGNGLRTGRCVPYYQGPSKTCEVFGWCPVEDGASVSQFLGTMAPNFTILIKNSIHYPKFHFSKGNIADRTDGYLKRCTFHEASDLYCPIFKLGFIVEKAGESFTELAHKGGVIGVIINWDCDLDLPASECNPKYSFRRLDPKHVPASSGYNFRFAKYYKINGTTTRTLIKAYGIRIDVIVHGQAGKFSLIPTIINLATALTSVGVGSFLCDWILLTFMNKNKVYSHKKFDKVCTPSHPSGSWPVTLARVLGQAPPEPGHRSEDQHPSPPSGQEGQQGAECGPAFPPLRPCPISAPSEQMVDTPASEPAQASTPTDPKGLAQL
Sequence of human P2X3 receptor (P56373 whole entry): as the sequence (P56373 whole entry) above

Regarding `Cc1cnc(-c2cc(OCC3(F)CN(C)C3)cc(C(=O)N[C@H](C)c3cnc(C(F)(F)F)nc3)c2)s1` [Example 371, 3-[(3-fluoro-1-methylazetidin-3-yl}methoxy]-5-(5-methyl-1,3-thiazol-2-yl)-N-{(1R)-1-[2-(trifluoromethyl)pyrimidin-5-yl]ethyl}benzamide], the IC50 was determined as 1.17 µM at human P2X2/3 receptor and 0.024 µM at human P2X3 receptor (setting [1]).
`CC(C)c1cnc(-c2cc(OC[C@@H]3CCOC3)cc(C(=O)N[C@H](C)c3ccc(C(F)(F)F)nn3)c2)s1` [Example 293, 3-[5-(propan-2-yl)-1,3-thiazol-2-yl]-5-[(3R)-tetrahydrofuran-3-ylmethoxy]-N-{(1R)-1-[6-(trifluoromethyl)pyridazin-3-yl]ethyl}benzamide]: the IC50 on human P2X2/3 receptor turned out to be 1.16 µM; at human P2X3 receptor (setting [1]) it was 0.063 µM.
Turning to `CCc1cnc(-c2cc(OC[C@@H]3CCOC3)cc(C(=O)N[C@H](C)c3cnc(C(F)(F)F)nc3)c2)s1` [Example 260, 3-(5-ethyl-1,3-thiazol-2-yl)-5-[(3R)-tetrahydrofuran-3-ylmethoxy]-N-{(1R)-1-[2-(trifluoromethyl)pyrimidin-5-yl]ethyl}benzamide], the IC50 was 0.014 µM at human P2X2/3 receptor and 0.002 µM at human P2X3 receptor (setting [1]).
For `Cc1cnc(-c2cc(OCC34CC(CO3)N(C(C)C)C4)cc(C(=O)N[C@H](C)c3cnc(C(F)(F)F)nc3)c2)s1` (stereo partly drawn) [Example 405, 3-[(5-isopropyl-2-oxa-5-azabicyclo[2.2.1]hept-1-yl)methoxy]-5-(5-methyl-1,3-thiazol-2-yl)-N-{(1R)-1-[2-(trifluoromethyl)pyrimidin-5-yl]ethyl}benzamide], the IC50 was found to be 1.56 µM at human P2X2/3 receptor and 0.017 µM on human P2X3 receptor (setting [1]).
Consider `Cc1cnc(-c2cc(OC[C@@H]3CCOC3)cc(C(=O)N[C@H](C)c3cnc(C(F)(F)F)nc3)c2)s1` [Example 73, 3-(5-Methyl-1,3-thiazol-2-yl)-5-[(3R)-tetrahydrofuran-3-ylmethoxy]-N-[(1R)-1-[2-(trifluoromethyl)pyrimidin-5-yl]ethyl]benzamide], for which the IC50 was 0.101 µM at human P2X2/3 receptor and 0.004 µM on human P2X3 receptor (setting [1]).
Turning to `Cc1cnc(-c2cc(OC3CN(C)C3)cc(C(=O)N[C@H](C)c3cnc(C(F)(F)F)nc3)c2)s1` [Example 143, 3-[(1-Methylazetidin-3-yl)oxy]-5-(5-methyl-1,3-thiazol-2-yl)-N-{(1R)-1-[2-(trifluoromethyl)pyrimidin-5-yl]ethyl}benzamide], the results for the IC50 on human P2X2/3 receptor and at human P2X3 receptor (setting [1]) were 3.05 µM and 0.084 µM, respectively.
Consider `Cc1cnc([C@@H](C)NC(=O)c2cc(OCC3CCOCC3)cc(-c3ncc(C)s3)c2)cn1` [Example 94, N-[(1R)-1-(5-Methylpyrazin-2-yl)ethyl]-3-(5-methyl-1,3-thiazol-2-yl)-5-(tetrahydro-2H-pyran-4-ylmethoxy)benzamide], for which the IC50 amounted to 0.132 µM on human P2X2/3 receptor and 0.007 µM on human P2X3 receptor (setting [1]).
As for `Cc1cc(Oc2cc(C(=O)N[C@H](C)c3cnc(C(F)(F)F)nc3)cc(-c3ncc(C)s3)c2)ccn1` [Example 103, 3-[(2-Methylpyridin-4-yl)oxy]-5-(5-methyl-1,3-thiazol-2-yl)-N-{(1R)-1-[2-(trifluoromethyl)pyrimidin-5-yl]ethyl}benzamide], the IC50 on human P2X2/3 receptor is 0.014 µM; at human P2X3 receptor (setting [1]) it was 0.002 µM.
For `Cc1cnc(-c2cc(O[C@@H]3CCOC3)cc(C(=O)NC(C)c3ncc(F)cc3Cl)c2)s1` (stereo partly drawn) [Example 13, N-[1-(3-chloro-5-fluoropyridin-2-yl)ethyl]-3-(5-methyl-1,3-thiazol-2-yl)-5-[(3R)-tetrahydrofuran-3-yloxy]benzamide], the IC50 at human P2X2/3 receptor was determined as 1.1 µM; at human P2X3 receptor (setting [1]) it was 0.021 µM.
Take `Cc1cnc([C@@H](C)NC(=O)c2cc(Oc3ccnc(C)c3)cc(-c3ncc(C)s3)c2)cn1` [Example 102, N-[(1R)-1-(5-Methylpyrazin-2-yl)ethyl]-3-[(2-methylpyridin-4-yl)oxy]-5-(5-methyl-1,3-thiazol-2-yl)benzamide]: the IC50 at human P2X2/3 receptor worked out at 0.057 µM; at human P2X3 receptor (setting [1]), 0.01 µM.
With `Cc1cnc(-c2cc(O[C@@H]3CCOC3)cc(C(=O)N[C@H](C)c3cnc(C(F)(F)F)cn3)c2)s1` [Example 147, 3-(5-methyl-1,3-thiazol-2-yl)-5-[(3R)-tetrahydrofuran-3-yloxy]-N-{(1R)-1-[5-(trifluoromethyl)pyrazin-2-yl]ethyl}benzamide], the IC50 worked out at 0.132 µM at human P2X2/3 receptor and 0.006 µM at human P2X3 receptor (setting [1]).
As to `CC(C)c1cnc(-c2cc(OC[C@H]3CCCO3)cc(C(=O)N[C@H](C)c3cnc(C(F)(F)F)nc3)c2)s1` [Example 275, 3-[5-(propan-2-yl)-1,3-thiazol-2-yl]-5-[(2R)-tetrahydrofuran-2-ylmethoxy]-N-{(1R)-1-[2-(trifluoromethyl)pyrimidin-5-yl]ethyl}benzamide], the IC50 at human P2X2/3 receptor turned out to be 0.191 µM; at human P2X3 receptor, 0.021 µM.
For `Cc1cnc(-c2cc(O[C@H]3CCNC3)cc(C(=O)N[C@H](C)c3cnc(C(F)(F)F)nc3)c2)s1` [Example 203, 3-(5-methyl-1,3-thiazol-2-yl)-5-[(3S)-pyrrolidin-3-yloxy]-N-{(1R)-1-[2-(trifluoromethyl)pyrimidin-5-yl]ethyl} benzamide], the IC50 on human P2X2/3 receptor worked out at 1.56 µM; at human P2X3 receptor (setting [1]), 0.036 µM.
In the same order, the values of `Cc1cnc(-c2cc(OC3CCN(C(C)C)CC3)cc(C(=O)N[C@H](C)c3ccc(C(F)(F)F)nn3)c2)s1` [Example 224, 3-(5-Methyl-1,3-thiazol-2-yl)-5-{[1-(propan-2-yl)piperidin-4-yl]oxy}-N-{(1R)-1-[6-(trifluoromethyl)pyridazin-3-yl]ethyl}benzamide] are 0.569 µM and 0.009 µM.
For `CCN1CCO[C@@H](COc2cc(C(=O)N[C@H](C)c3cnc(C(F)(F)F)nc3)cc(-c3ncc(C)s3)c2)C1` [Example 390, 3-{[(2R)-4-ethylmorpholin-2-yl]methoxy}-5-(5-methyl-1,3-thiazol-2-yl)-N-{(1R)-1-[2-(trifluoromethyl)pyrimidin-5-yl]ethyl}benzamide], in that order: 0.804 µM and 0.017 µM.
For the compound `Cc1cnc(-c2cc(O[C@H]3C[C@H]4CC[C@@H](C3)N4C)cc(C(=O)N[C@H](C)c3cnc(C(F)(F)F)nc3)c2)s1` [Example 216, 3-{[(3-endo)-8-methyl-8-azabicyclo[3.2.1]oct-3-yl]oxy}-5-(5-methyl-1,3-thiazol-2-yl)-N-{(1R)-1-[2-(trifluoromethyl)pyrimidin-5-yl]ethyl} benzamide], the IC50 at human P2X2/3 receptor was found to be 0.928 µM; on human P2X3 receptor (setting [1]) it was 0.014 µM.
As to `C[C@@H](NC(=O)c1cc(OC2CCOCC2)cc(-c2ncc(C3CCC3)s2)c1)c1cnc(C(F)(F)F)nc1` [Example 238, 3-(5-cyclobutyl-1,3-thiazol-2-yl)-5-(tetrahydro-2H-pyran-4-yloxy)-N-{(1R)-1-[2-(trifluoromethyl)pyrimidin-5-yl]ethyl}benzamide], the IC50 came to 0.397 µM at human P2X2/3 receptor and 0.038 µM at human P2X3 receptor (setting [1]).
Consider `Cc1cnc([C@@H](C)NC(=O)c2cc(OC[C@H]3CCOC3)cc(-c3ncc(C)s3)c2)cn1` [Example 68, N-[(1R)-1-(5-Methylpyrazin-2-yl)ethyl]-3-(5-methyl-1,3-thiazol-2-yl)-5-[(3S)-tetrahydrofuran-3-ylmethoxy]benzamide], for which the IC50 at human P2X2/3 receptor amounted to 1.62 µM; on human P2X3 receptor (setting [1]), 0.044 µM.
For the compound `CC(=O)N1CCC(Oc2cc(C(=O)N[C@H](C)c3cnc(C(F)(F)F)nc3)cc(-c3ncc(C)s3)c2)CC1` [Example 150, 3-[(1-acetylpiperidin-4-yl)oxy]-5-(5-methyl-1,3-thiazol-2-yl)-N-{(1R)-1-[2-(trifluoromethyl)pyrimidin-5-yl]ethyl}benzamide], the results for the IC50 at human P2X2/3 receptor and on human P2X3 receptor (setting [1]) were 0.083 µM and 0.012 µM, respectively.
On to `Cc1cnc([C@@H](C)NC(=O)c2cc(OC3CCN(CC(F)F)CC3)cc(-c3ncc(C)s3)c2)cn1` [Example 306, 3-{[1-(2,2-difluoroethyl)piperidin-4-yl]oxy}-N-[(1R)-1-(5-methylpyrazin-2-yl)ethyl]-5-(5-methyl-1,3-thiazol-2-yl)benzamide], for which the IC50 on human P2X2/3 receptor amounted to 0.464 µM; at human P2X3 receptor (setting [1]) it was 0.042 µM.
Consider `Cc1cnc(CNC(=O)c2cc(OCC3CC3)cc(-c3ncc(C)s3)c2)cn1` [Example 3, 3-(Cyclopropylmethoxy)-N-[(5-methylpyrazin-2-yl)methyl]-5-(5-methyl-1,3-thiazol-2-yl)benzamide], for which the IC50 at human P2X2/3 receptor stood at 1.11 µM; on human P2X3 receptor (setting [1]) it was 0.026 µM.
Consider `C[C@H](NC(=O)c1cc(OC[C@H]2CCOC2)cc(-c2ncc(C3CCC3)s2)c1)c1cnc(C(F)(F)F)nc1` [Example 239, 3-(5-cyclobutyl-1,3-thiazol-2-yl)-5-[(3S)-tetrahydrofuran-3-ylmethoxy]-N-{(1S)-1-[2-(trifluoromethyl)pyrimidin-5-yl]ethyl}benzamide], for which the values for the IC50 at human P2X2/3 receptor and at human P2X3 receptor (setting [1]) were 2.17 µM and 1.42 µM, respectively.
Consider `Cc1cnc(CNC(=O)c2cc(OC[C@H]3CCOC3)cc(-c3ncc(C)s3)c2)cn1` [Example 67, N-[(5-Methylpyrazin-2-yl)methyl]-3-(5-methyl-1,3-thiazol-2-yl)-5-[(3S)-tetrahydrofuran-3-ylmethoxy]benzamide], for which the IC50 at human P2X2/3 receptor is not below 10 µM; on human P2X3 receptor (setting [1]), 0.186 µM.
In the same order, the values of `CCc1cnc(-c2cc(O[C@H]3CCOC3)cc(C(=O)N[C@H](C)c3ccc(C)nn3)c2)s1` [Example 249, 3-(5-ethyl-1,3-thiazol-2-yl)-N-[(1R)-1-(6-methylpyridazin-3-yl)ethyl]-5-[(3S)-tetrahydrofuran-3-yloxy]benzamide] are 0.057 µM and 0.011 µM.
For `Cc1cnc(-c2cc(OCC3CN(C(C)C)CCO3)cc(C(=O)N[C@H](C)c3cnc(C(F)(F)F)nc3)c2)s1` (stereo in doubt) [Example 382, 3-(5-methyl-1,3-thiazol-2-yl)-5-{[(2R)-4-(propan-2-yl)morpholin-2-yl]methoxy}-N-{(1R)-1-[2-(trifluoromethyl)pyrimidin-5-yl]ethyl}benzamide], the figures for the IC50 at human P2X2/3 receptor and at human P2X3 receptor (setting [1]) were 0.432 µM and 0.013 µM, respectively.
